Experimental findings from paper PMC11272598, “RG7774 (Vicasinabin), an orally bioavailable cannabinoid receptor 2 (CB2R) agonist, decreases retinal vascular permeability, leukocyte adhesion, and ocular inflammation in animal models” (Frontiers in Pharmacology, 2024) are described below.

The subject of series [1] is Human EMT. Nature of the series: Human EMT activity (HaCaT cells). The conditions noted are these: RG7774 10 µM. Type of series: cell-based. As for the experimental part:
HaCaT cells were seeded (350,000–400,000 cell/well) in triplicate in 12-well plates and incubated for 15 min in PBS at 37°C with [^3H]-N-arachidonoylethanolamine ([^3H]-AEA) (400 nM) (ARC, MO, USA), as previously reported. Experiments were repeated at 4°C in order to subtract passive diffusion from EMT-mediated uptake. RG7774 (10 µM) was preincubated with labeled HaCaT cells for 15 min before adding directly to the incubation medium (PBS). The selective EMT inhibitor, OMDM-1 (40 µM), was used as positive control.

The target in series [2] is Mouse CB1R (Mus musculus, UniProt P47746). Nature of the series: Mouse cAMP assay in N18TG2 cells. The note with it: RG7774 10 µM, N18TG2 cells; read-out: Mean ± SEM % inhibition of control, Mouse CB1R (cAMP assay). Format: cell-based. Here is the method: The effect of RG7774 on the forskolin-stimulated accumulation of cAMP was determined using the LANCE ULTRAcAMP kit (PerkinElmer Life Sciences, MA, USA), according to the manufacturer’s instructions. Briefly, N18TG2 cells preincubated for 30 min with 1-methyl-3-isobutylxanthine (1 mM) were added to 0.5 µM forskolin preincubated with or without RG7774 for 15 min. Reactions were incubated for 30 min at 37°C and Time-resolved fluorescence was measured using a Victor V Multilabel counter (PerkinElmer Life Sciences). Data were transformed into cAMP concentrations using a standard curve.
Mouse CB1R, sequence (P47746 whole entry): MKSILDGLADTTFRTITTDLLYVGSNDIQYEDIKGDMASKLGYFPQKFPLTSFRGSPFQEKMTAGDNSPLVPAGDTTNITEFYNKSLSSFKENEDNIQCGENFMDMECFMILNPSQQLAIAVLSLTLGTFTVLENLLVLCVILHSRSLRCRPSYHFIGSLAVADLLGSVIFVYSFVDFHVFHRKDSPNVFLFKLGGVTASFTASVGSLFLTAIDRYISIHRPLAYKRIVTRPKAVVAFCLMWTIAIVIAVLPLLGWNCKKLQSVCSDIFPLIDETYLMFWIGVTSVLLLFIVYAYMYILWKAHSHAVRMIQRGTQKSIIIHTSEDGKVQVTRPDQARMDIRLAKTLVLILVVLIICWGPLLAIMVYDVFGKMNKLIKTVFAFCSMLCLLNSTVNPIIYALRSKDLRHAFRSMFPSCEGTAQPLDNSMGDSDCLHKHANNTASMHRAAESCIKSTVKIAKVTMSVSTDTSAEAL
(cAMP levels reflect the balance of adenylyl cyclase and phosphodiesterase activity.)

In series [3] the target is T1, Mouse MAGL (Mus musculus, UniProt O35678).
T1 construct: Mouse brain or human U937 cell extracts (ATCC, Manassas, VI, USA); from tissue; host or cells: mouse brain, 100,000 g supernatant
T1 sequence (O35678 whole entry): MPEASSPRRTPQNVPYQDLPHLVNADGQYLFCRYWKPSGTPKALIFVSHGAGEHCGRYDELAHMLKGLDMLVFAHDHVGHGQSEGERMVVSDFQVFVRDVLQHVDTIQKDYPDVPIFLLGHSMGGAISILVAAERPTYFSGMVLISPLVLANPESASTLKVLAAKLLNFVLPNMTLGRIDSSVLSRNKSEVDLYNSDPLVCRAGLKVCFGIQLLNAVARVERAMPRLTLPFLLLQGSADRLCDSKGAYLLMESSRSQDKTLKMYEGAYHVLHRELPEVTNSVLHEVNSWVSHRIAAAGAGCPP
The experiment in a line: Mouse MAGL assay (brain). Format: biochemical. The note with it: RG7774 10 µM; read-out: Mean ± SEM % inhibition of control, Mouse MAGL. Here is the method: The final supernatant was incubated with [^3H]-2-OG (10 µM) (ARC, MO, USA) at 37°C for 30 min as previously described, and reactions were stopped with a 2:1 (v/v) mixture of chloroform/methanol. [^3H]-glycerol release in the aqueous phase was measured by scintillation counting. […] Human supernatant (100 µg) was preincubated for 15 min at RT with 8 different concentrations of RG7774 (0.1-500 µM) in the incubation medium.

A short description of series [4]: Kinetic lyophilization solubility assay (LYSA). Format: physicochemical. The note with it: aqueous buffer, 0.05 M PBS pH 6.5. As for the experimental part:
RG7774 samples were prepared in duplicate from 10 mM DMSO stock solutions. DMSO was evaporated for 1 h using a centrifugal vacuum evaporator (Genevac Technologies, UK) and the residue was dissolved in 0.05 M PBS (pH 6.5), stirred for 1 h, and shaken for 2 h. Solutions were filtered 12 h later using a microtiter filter plate (MSDV N65; Merck Millipore, MA, USA). The filtrate and its 1:10 dilution were analyzed by direct ultraviolet (UV) measurement or high-performance liquid chromatography with UV spectroscopy (HPLC-UV). […] The measurement range for a compound with molecular weight 500 was 0 to 666 μg/mL.

Series [5] relates to retinal microglia migration. The experiment in a line: Laser-induced CNV in rats, microglia volume on laser lesions. Type of series: in vivo, Brown Norway rats. As for the experimental part:
Right eyes were transferred to a petri dish containing 10% neutral-buffered formalin (NBF) and fixed for 5 min at RT. Eyes were prepared in PBS^−/– by removing the anterior segments and carefully separating the retinas from the posterior segments (retinal pigment epithelium/choroid and sclera). Dissected retinas were cut into petals, transferred to 2 × 24 well plates containing fresh 10% NBF solution, and fixed for 2 h at RT. […]
Microglia migration towards laser-injured retinal regions was quantified from 3D RGB-images (CZI-files) of the fluorescently labeled retinal samples, a workflow and image analytics tool was applied that allowed a semi-automated volumetric quantitation of Iba1-positive pixel per image frame integrated over the Z-dimension. […] Subsequently, TIFF images were analyzed using IDL (Interactive Data Language, Version 6.4) in combination with Excel 2010 to compute RGB-channel-dependent threshold images (pdf-files) with a histogram between 1–255 A.U. pixel intensity. […] The sum of pixels displaying the determined threshold intensity or higher was calculated and finally integrated over the Z-dimension of the 3D image.

By inhibition is commonly meant the share of the control response that was lost under treatment. The term solubility (kinetic) denotes the concentration staying in solution when a stock, usually in DMSO, is diluted into the medium.

≈ marks a conversion by molar mass, not a printed value.

In the case of `Cn1nnnc1Cn1nnc2c(N3CC[C@H](O)C3)nc(C(C)(C)C)nc21` [RG7774, (S)-1-(5-tert-butyl-3-[(1-methyl-1H-tetrazol-5-yl)methyl]-3H-[1,2,3]triazolo[4,5-d]pyrimidin-7-yl)pyrrolidin-3-ol], in series [1], the “Mean ± SEM % inhibition of control, Human EMT” value is recorded as 4.5 ± 25.5%. Moreover, the inhibition at 10 µM in series [2] worked out at 16.6%; in series [3], 2.7 ± 11.7%. The same compound gave a solubility (kinetic) in series [4] of 285 µg/mL (≈ 795 µM). The “reduction of microglia volumes in lasered versus non-lasered regions” value is recorded as 25% in series [5] (3 mg/kg oral gavage) and 41% in series [5] (10 mg/kg oral gavage).
